biological target: KRasG12C (M1-K169, biotinylated on the N-terminus) (Homo sapiens (Human), UniProt P01116, G12C); experiment: Covalent competition assay: scintillation proximity assay (SPA) quantifying covalent modification of KRASG12C; type: binding; conditions: competition with radiolabeled covalent probe (Compound B/Compound A), 2 hours incubation, 10 nM KRasG12C
In short: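 Scintillation proximity readout after streptavidin bead capture (30 min) of biotinylated KRasG12C(M1-K169):GDP, 10 nM final, which was covalently labelled over 2 h by 25 nM radio-probe plus 475 nM cold probe unless blocked by compound.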

| IC50 | SMILES |
| --- | --- |
| 2100 nM | C=CC(=O)N1CC2(CC(n3nc(N4[C@H](C)CN(C(C)=O)C[C@@H]4C)c(-c4c(Cl)c(C)cc5[nH]ncc45)c3C)C2)C1 (single isomer, unassigned) [Example 13b] |
| > 5000 nM | C=CC(=O)N1CC2(CC(n3nc(N4CCN(C(=O)OCCOC)CC45CCC5)c(-c4c(Cl)c(C)cc5[nH]ncc45)c3C)C2)C1 (single isomer, unassigned) [Example 122a, 2-methoxyethyl 5-(1-(2-acryloyl-2-azaspiro[3.3]heptan-6-yl)-4-(5-chloro-6-methyl-1H-indazol-4-yl)-5-methyl-1H-pyrazol-3-yl)-5,8-diazaspiro[3.5]nonane-8-carboxylate] |
| 14 nM | C=CC(=O)N1CC2(CC(n3nc(N4CCN(C5CC6(COC6)C5)CC45CCC5)c(-c4c(Cl)c(C)cc5[nH]ncc45)c3C)C2)C1 (single isomer, unassigned) [Example 135b, 1-(6-(3-(8-(2-oxaspiro[3.3]heptan-6-yl)-5,8-diazaspiro[3.5]nonan-5-yl)-4-(5-chloro-6-methyl-1H-indazol-4-yl)-5-methyl-1H-pyrazol-1-yl)-2-azaspiro[3.3]heptan-2-yl)prop-2-en-1-one] |
| 17 nM | C=CC(=O)N1C[C@]2(C[C@H](n3nc(N4CC[C@@H](CN5CCN(C6COC6)CC5)CC4(C)C)c(-c4c(Cl)c(Cl)cc5[nH]ncc45)c3C)C2)[C@H]1C (single isomer, unassigned) [Example 201b] |
| > 5000 nM | C=CC(=O)N1CC2(CC(n3nc(N4CCC(CN5C[C@@H]6OCCO[C@@H]6C5)CC4(C)C)c(-c4c(Cl)c(Cl)cc5[nH]ncc45)c3C)C2)C1 (single isomer, unassigned) [Example 231a] |
| 390 nM | C=CC(=O)N1CC2(CC(n3nc(N4CCC(CN5CCN(C)CC5=O)CC4(C)C)c(-c4c(Cl)c(Cl)cc5[nH]ncc45)c3C)C2)C1 (single isomer, unassigned) [Example 240a, 1-((1-(1-(2-acryloyl-2-azaspiro[3.3]heptan-6-yl)-4-(5,6-dichloro-1H-indazol-4-yl)-5-methyl-1H-pyrazol-3-yl)-2,2-dimethylpiperidin-4-yl)methyl)-4-methylpiperazin-2-one] |
| 3300 nM | C=CC(=O)N1CC2(CC(n3nc(N4CC[C@@H](CN5CCN(C6COC6)C[C@@H]5COC)CC4(C)C)c(-c4c(Cl)c(Cl)cc5[nH]ncc45)c3C)C2)C1 (single isomer, unassigned) [Example 320a] |
| 51 nM | C=CC(=O)N1CC2(CC(n3nc(N4CCN(CC(C)(C)O)C[C@@]4(C)C(F)F)c(-c4c(Cl)c(C)cc5[nH]ncc45)c3C)C2)C1 (single isomer, unassigned) [Example 166b] |

The remaining lines, values behind:

| SMILES | IC50 |
| --- | --- |
| C=CC(=O)N1CC2(CC(n3nc(N4CCC5(CN(C)CCO5)CC4(C)C)c(-c4c(Cl)c(C)cc5[nH]ncc45)c3C)C2)C1 (single isomer, unassigned) [Example 207a, 1-(6-(4-(5-chloro-6-methyl-1H-indazol-4-yl)-5-methyl-3-(4,8,8-trimethyl-1-oxa-4,9-diazaspiro[5.5]undecan-9-yl)-1H-pyrazol-1-yl)-2-azaspiro[3.3]heptan-2-yl)prop-2-en-1-one] | > 5000 nM |
| C=CC(=O)N1CC2(CC(n3nc(N4CC5(CCOC5)C4)c(-c4c(Cl)c(Cl)cc5[nH]ncc45)c3C)C2)C1 (single isomer, unassigned) [Example 108a, 1-(6-(4-(5,6-dichloro-1H-indazol-4-yl)-5-methyl-3-(6-oxa-2-azaspiro[3.4]octan-2-yl)-1H-pyrazol-1-yl)-2-azaspiro[3.3]heptan-2-yl)prop-2-en-1-one] | > 5000 nM |
| C=CC(=O)N1CC2(CC(n3nc(N4CCN(C[C@@H]5COCCO5)CC45CCC5)c(-c4c(Cl)c(Cl)cc5[nH]ncc45)c3C)C2)C1 (single isomer, unassigned) [Example 171a] | > 5000 nM |
| C=CC(=O)N1CC2(CC(n3nc(N4CC[C@@H](CN5C[C@@H]6C[C@H]5CS6(=O)=O)CC4(C)C)c(-c4c(Cl)c(Cl)cc5[nH]ncc45)c3C)C2)C1 (single isomer, unassigned) [Example 249b] | 13 nM |
| C=CC(=O)N1CC2(CC(n3nc(N4CCC(C(=O)N(C)C)CC4(C)C)c(-c4c(Cl)c(C)cc5[nH]ncc45)c3C)C2)C1 (stereo not drawn) [Example 98a, 1-(1-(2-acryloyl-2-azaspiro[3.3]heptan-6-yl)-4-(5-chloro-6-methyl-1H-indazol-4-yl)-5-methyl-1H-pyrazol-3-yl)-N,N,2,2-tetramethylpiperidine-4-carboxamide] | > 5000 nM |
| C=CC(=O)N1CC2(CC(n3nc(N4CCN(C[C@@H]5COCCO5)C[C@]4(C)CC)c(-c4c(Cl)cnc5[nH]ncc45)c3C)C2)C1 (single isomer, unassigned) [Example 81b] | 585 nM |
| C=CC(=O)N1CC2(CC(n3nc(N4CCC(CN5CC6CC(C5)O6)CC4(C)C)c(-c4c(Cl)c(Cl)cc5[nH]ncc45)c3C)C2)C1 (single isomer, unassigned) [Example 229a, 1-(6-(3-(4-((6-oxa-3-azabicyclo[3.1.1]heptan-3-yl)methyl)-2,2-dimethylpiperidin-1-yl)-4-(5,6-dichloro-1H-indazol-4-yl)-5-methyl-1H-pyrazol-1-yl)-2-azaspiro[3.3]heptan-2-yl)prop-2-en-1-one] | > 5000 nM |
| C=CC(=O)N1CC2(CC(n3nc(N4CCC(CN5CC6CC(C5)O6)CC4(C)C)c(-c4c(Cl)c(Cl)cc5[nH]ncc45)c3C)C2)C1 (single isomer, unassigned) [Example 228a, 1-(6-(3-(4-((6-oxa-3-azabicyclo[3.1.1]heptan-3-yl)methyl)-2,2-dimethylpiperidin-1-yl)-4-(5,6-dichloro-1H-indazol-4-yl)-5-methyl-1H-pyrazol-1-yl)-2-azaspiro[3.3]heptan-2-yl)prop-2-en-1-one] | > 5000 nM |
| C=CC(=O)N1CC2(CC(n3nc(N4CCC(N5C6CCC5COC6)CC4(C)C)c(-c4c(Cl)c(C)cc5[nH]ncc45)c3C)C2)C1 (single isomer, unassigned) [Example 75b] | 228 nM |
| C=CC(=O)N1CC2(CC(n3nc(N4CC[C@@H](CN5CCn6cnnc6C5)CC4(C)C)c(-c4c(Cl)c(Cl)cc5[nH]ncc45)c3C)C2)C1 (single isomer, unassigned) [Example 250b] | 8 nM |
| C=CC(=O)N1CC2(CC(n3cc(-c4c(Cl)c(C)cc5[nH]ncc45)c(N4CC[C@@H](CN5CCOCC5)CC4(C)C)n3)C2)C1 [Example 223, (R)-1-(6-(4-(5-chloro-6-methyl-1H-indazol-4-yl)-3-(2,2-dimethyl-4-(morpholinomethyl)piperidin-1-yl)-1H-pyrazol-1-yl)-2-azaspiro[3.3]heptan-2-yl)prop-2-en-1-one] | 600 nM |
| C=CC(=O)N1CC2(CC(n3nc(N4CCN(CC(F)(F)F)CC4(C)C)c(-c4c(Cl)c(C)cc5[nH]ncc45)c3C)C2)C1 (single isomer, unassigned) [Example 68b, 1-(6-(4-(5-chloro-6-methyl-1H-indazol-4-yl)-3-(2,2-dimethyl-4-(2,2,2-trifluoroethyl)piperazin-1-yl)-5-methyl-1H-pyrazol-1-yl)-2-azaspiro[3.3]heptan-2-yl)prop-2-en-1-one] | 239 nM |
| C=CC(=O)N1CC2(CC(n3nc(N4CCS(=O)(=O)CC4(C)C)c(-c4c(Cl)c(C)cc5[nH]ncc45)c3C)C2)C1 (single isomer, unassigned) [Example 82b, 1-(6-(4-(5-chloro-6-methyl-1H-indazol-4-yl)-3-(3,3-dimethyl-1,1-dioxidothiomorpholino)-5-methyl-1H-pyrazol-1-yl)-2-azaspiro[3.3]heptan-2-yl)prop-2-en-1-one] | 831 nM |
| C=CC(=O)N1CC2(CC(n3nc(N4CC[C@@H](CN5CC6(CCS(=O)(=O)C6)C5)CC4(C)C)c(-c4c(Cl)c(Cl)cc5[nH]ncc45)c3C)C2)C1 (single isomer, unassigned) [Example 254a] | 2600 nM |
| C=CC(=O)N1CC2(CC(n3nc(N4CCN(C(=O)C(F)F)CC4(C)C)c(-c4c(Cl)c(C)cc5[nH]ncc45)c3C)C2)C1 (single isomer, unassigned) [Example 128b, 1-(6-(4-(5-chloro-6-methyl-1H-indazol-4-yl)-3-(4-(2,2-difluoroacetyl)-2,2-dimethylpiperazin-1-yl)-5-methyl-1H-pyrazol-1-yl)-2-azaspiro[3.3]heptan-2-yl)prop-2-en-1-one] | 54 nM |
| C=CC(=O)N1CC2(CC(n3nc(N4CCC5C(=O)N(C)CC5C4)c(-c4c(Cl)c(C)cc5[nH]ncc45)c3C)C2)C1 (stereo not drawn) [Example 16, (3aS*,7aS*)-5-(1-(2-acryloyl-2-azaspiro[3.3]heptan-6-yl)-4-(5-chloro-6-methyl-1H-indazol-4-yl)-5-methyl-1H-pyrazol-3-yl)-2-methyloctahydro-1H-pyrrolo[3,4-c]pyridin-1-one] | 1000 nM |
| C=CC(=O)N1CC2(CC(n3nc(N4CC[C@@H](CN5C[C@@H]6CS(=O)(=O)C[C@@H]6C5)CC4(C)C)c(-c4c(Cl)c(Cl)cc5[nH]ncc45)c3C)C2)C1 (single isomer, unassigned) [Example 294b] | 10 nM |
| C=CC(=O)N1CC2(CC(n3nc(N4CC[C@@H](CN5CCCC6CN(C)C(=O)C65)CC4(C)C)c(-c4c(Cl)c(Cl)cc5[nH]ncc45)c3C)C2)C1 (single isomer, unassigned) [Example 262b, (4aR*,7aR*)-1-(((R)-1-(1-(2-acryloyl-2-azaspiro[3.3]heptan-6-yl)-4-(5,6-dichloro-1H-indazol-4-yl)-5-methyl-1H-pyrazol-3-yl)-2,2-dimethylpiperidin-4-yl)methyl)-6-methyloctahydro-7H-pyrrolo[3,4-b]pyridin-7-one] | 7 nM |
| C=CC(=O)N1CC2(CC(n3nc(N4CCc5cnn(C)c5C4)c(-c4c(Cl)c(C)cc5[nH]ncc45)c3C)C2)C1 (single isomer, unassigned) [Example 14b, 1-(6-(4-(5-chloro-6-methyl-1H-indazol-4-yl)-5-methyl-3-(1-methyl-1,4,5,7-tetrahydro-6H-pyrazolo[3,4-c]pyridin-6-yl)-1H-pyrazol-1-yl)-2-azaspiro[3.3]heptan-2-yl)prop-2-en-1-one] | 364 nM |

From patent US20240317721A1, “PYRAZOLYL DERIVATIVES AS INHIBITORS OF THE KRAS MUTANT PROTEIN” (NOVARTIS AG, priority 2021, published 2024)
